Results as given in publication doi:10.1101/2024.03.13.583470v1, “SARS-CoV-2 methyltransferase nsp10-16 in complex with natural and drug-like purine analogs for guiding structure-based drug discovery” (biorxiv, 2024).

Biological target: T1, nsp10-16 (Severe acute respiratory syndrome coronavirus 2, UniProt P0DTD1)
T1 construct: gene rep
Experiment: X-ray crystallography, soaking
Type: binding
Details: SAM site, fully replaces SAM; 10 mM soak, pH 6.5

Structure (SMILES)	X-ray crystallography, soaking
Nc1ncnc2c1c(I)cn2[C@@H]1O[C@H](CO)[C@@H](O)[C@H]1O [5-iodotubercidin]	toyocamycin, sangivamycin and 5-iodotubercidin share the same orientation as tubercidin
N#Cc1cn([C@@H]2O[C@H](CO)[C@@H](O)[C@H]2O)c2ncnc(N)c12 [toyocamycin]	toyocamycin, sangivamycin and 5-iodotubercidin share the same orientation as tubercidin
